The CheMixHub viscosity set
± gives the uncertainty stated by the source.

Assay: xn = mol fraction of the nth substance listed

CC(C)(C)N + O
Settings	viscosity [mPa·s]
298 K, 101 kPa, x1 = 0.001	0.993 ± 0.013
298 K, 101 kPa, x1 = 0.01	1.068 ± 0.013
298 K, 101 kPa, x1 = 0.02	1.269 ± 0.014
298 K, 101 kPa, x1 = 0.03	1.527 ± 0.016
298 K, 101 kPa, x1 = 0.04	1.698 ± 0.017
298 K, 101 kPa, x1 = 0.05	1.89 ± 0.018
298 K, 101 kPa, x1 = 0.06	2.059 ± 0.019
298 K, 101 kPa, x1 = 0.08	2.363 ± 0.022
298 K, 101 kPa, x1 = 0.1	2.604 ± 0.023
298 K, 101 kPa, x1 = 0.15	2.992 ± 0.026
298 K, 101 kPa, x1 = 0.2	3.112 ± 0.027
298 K, 101 kPa, x1 = 0.25	3.057 ± 0.027
298 K, 101 kPa, x1 = 0.3	2.832 ± 0.025
298 K, 101 kPa, x1 = 0.4	2.211 ± 0.021
298 K, 101 kPa, x1 = 0.5	1.642 ± 0.017
298 K, 101 kPa, x1 = 0.6	1.195 ± 0.014
298 K, 101 kPa, x1 = 0.7	0.881 ± 0.012
298 K, 101 kPa, x1 = 0.8	0.677 ± 0.011
298 K, 101 kPa, x1 = 0.85	0.594 ± 0.011
298 K, 101 kPa, x1 = 0.9	0.534 ± 0.011
298 K, 101 kPa, x1 = 0.92	0.523 ± 0.011
298 K, 101 kPa, x1 = 0.95	0.48 ± 0.011
298 K, 101 kPa, x1 = 0.97	0.462 ± 0.011
298 K, 101 kPa, x1 = 0.98	0.456 ± 0.011
298 K, 101 kPa, x2 = 0.01	0.445 ± 0.011
298.15 K, 101.33 kPa, x1 = 0.1001	2.654 ± 0.016
298.15 K, 101.33 kPa, x1 = 0.2002	3.163 ± 0.019
298.15 K, 101.33 kPa, x1 = 0.2998	2.906 ± 0.019
298.15 K, 101.33 kPa, x1 = 0.3996	2.294 ± 0.017
298.15 K, 101.33 kPa, x1 = 0.5	1.69 ± 0.014
298.15 K, 101.33 kPa, x1 = 0.5999	1.229 ± 0.011
298.15 K, 101.33 kPa, x1 = 0.6984	0.9094 ± 0.0088
298.15 K, 101.33 kPa, x1 = 0.7998	0.6936 ± 0.0073
298.15 K, 101.33 kPa, x1 = 0.9	0.5459 ± 0.0063
303 K, 101 kPa, x1 = 0.001	0.81 ± 0.012
303 K, 101 kPa, x1 = 0.01	0.947 ± 0.013
303 K, 101 kPa, x1 = 0.02	1.116 ± 0.013
303 K, 101 kPa, x1 = 0.03	1.29 ± 0.014
303 K, 101 kPa, x1 = 0.04	1.455 ± 0.015
303 K, 101 kPa, x1 = 0.05	1.606 ± 0.016
303 K, 101 kPa, x1 = 0.06	1.745 ± 0.017
303 K, 101 kPa, x1 = 0.08	1.986 ± 0.019
303 K, 101 kPa, x1 = 0.1	2.189 ± 0.02
303 K, 101 kPa, x1 = 0.15	2.516 ± 0.022
303 K, 101 kPa, x1 = 0.2	2.622 ± 0.023
303 K, 101 kPa, x1 = 0.25	2.57 ± 0.023
303 K, 101 kPa, x1 = 0.3	2.392 ± 0.021
303 K, 101 kPa, x1 = 0.4	1.901 ± 0.018
303 K, 101 kPa, x1 = 0.5	1.419 ± 0.015
303 K, 101 kPa, x1 = 0.6	1.06 ± 0.013
303 K, 101 kPa, x1 = 0.7	0.787 ± 0.012
303 K, 101 kPa, x1 = 0.8	0.609 ± 0.011
303 K, 101 kPa, x1 = 0.85	0.543 ± 0.011
303 K, 101 kPa, x1 = 0.9	0.49 ± 0.011
303 K, 101 kPa, x1 = 0.92	0.47 ± 0.011
303 K, 101 kPa, x1 = 0.95	0.442 ± 0.011
303 K, 101 kPa, x1 = 0.97	0.426 ± 0.011
303 K, 101 kPa, x1 = 0.98	0.419 ± 0.011
303 K, 101 kPa, x2 = 0.01	0.417 ± 0.011
303.15 K, 101.33 kPa, x1 = 0.1001	2.222 ± 0.014
303.15 K, 101.33 kPa, x1 = 0.2002	2.645 ± 0.017
303.15 K, 101.33 kPa, x1 = 0.2998	2.422 ± 0.017
303.15 K, 101.33 kPa, x1 = 0.3996	1.935 ± 0.014
303.15 K, 101.33 kPa, x1 = 0.5	1.453 ± 0.012
303.15 K, 101.33 kPa, x1 = 0.5999	1.076 ± 0.0096
303.15 K, 101.33 kPa, x1 = 0.6984	0.8077 ± 0.0079
303.15 K, 101.33 kPa, x1 = 0.7998	0.6226 ± 0.0066
303.15 K, 101.33 kPa, x1 = 0.9	0.5017 ± 0.0058
308 K, 101 kPa, x1 = 0.001	0.73 ± 0.012
308 K, 101 kPa, x1 = 0.01	0.846 ± 0.012
308 K, 101 kPa, x1 = 0.02	0.99 ± 0.013
308 K, 101 kPa, x1 = 0.03	1.132 ± 0.014
308 K, 101 kPa, x1 = 0.04	1.263 ± 0.014
308 K, 101 kPa, x1 = 0.05	1.394 ± 0.015
308 K, 101 kPa, x1 = 0.06	1.571 ± 0.016
308 K, 101 kPa, x1 = 0.08	1.718 ± 0.017
308 K, 101 kPa, x1 = 0.1	1.871 ± 0.018
308 K, 101 kPa, x1 = 0.15	2.168 ± 0.021
308 K, 101 kPa, x1 = 0.2	2.211 ± 0.021
308 K, 101 kPa, x1 = 0.25	2.16 ± 0.02
308 K, 101 kPa, x1 = 0.3	2.061 ± 0.02
308 K, 101 kPa, x1 = 0.4	1.643 ± 0.017
308 K, 101 kPa, x1 = 0.5	1.24 ± 0.014
308 K, 101 kPa, x1 = 0.7	0.712 ± 0.011
308 K, 101 kPa, x1 = 0.8	0.566 ± 0.011
308 K, 101 kPa, x1 = 0.85	0.499 ± 0.011
308 K, 101 kPa, x1 = 0.9	0.451 ± 0.011
308 K, 101 kPa, x1 = 0.92	0.433 ± 0.011
308 K, 101 kPa, x1 = 0.95	0.41 ± 0.011
308 K, 101 kPa, x1 = 0.97	0.396 ± 0.011
308 K, 101 kPa, x1 = 0.98	0.389 ± 0.011
308 K, 101 kPa, x2 = 0.01	0.383 ± 0.011
308.15 K, 101.33 kPa, x1 = 0.1001	1.888 ± 0.012
308.15 K, 101.33 kPa, x1 = 0.2002	2.229 ± 0.014
308.15 K, 101.33 kPa, x1 = 0.2998	2.058 ± 0.014
308.15 K, 101.33 kPa, x1 = 0.3996	1.655 ± 0.012
308.15 K, 101.33 kPa, x1 = 0.5	1.258 ± 0.01
308.15 K, 101.33 kPa, x1 = 0.5999	0.9485 ± 0.0085
308.15 K, 101.33 kPa, x1 = 0.6984	0.726 ± 0.0071
308.15 K, 101.33 kPa, x1 = 0.7998	0.5736 ± 0.0062
